Experimental data: US10870647B2, “Imidazopyridine derivative, method for preparing same, and pharmaceutical composition containing same as active ingredient for preventing or treating cancer” (DAEGU-GYEONGBUK MEDICAL INNOVATION FOUNDATION, priority 2016, dated 2020)

Experiments:
Test in all cases: Kinase selectivity, scanMAX Kinase assay panel (DiscoverX), % control at 1 uM
Assay type in all cases: binding
[1] = molecular target: T1, scanMAX Kinase assay panel (Homo sapiens, UniProt P53350); conditions: PLK1; 1 uM; read-out: Percent Control (%)
T1 construct: purchased DiscoverX
Procedure, shortened: (§1)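 Compounds were tested at 1 uM in DMSO against each enzyme in the panel. Percent control was calculated as (compound − positive control)/(negative control − positive control) × 100, and a compound was scored active on a kinase when this value fell below 35.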

[2] = molecular target: T2, scanMAX Kinase assay panel (Homo sapiens, UniProt P51617); conditions: IRAK1; 1 uM; read-out: Percent Control (%)
T2 construct: purchased DiscoverX
Procedure, shortened: as §1

[3] = molecular target: T3, scanMAX Kinase assay panel (Homo sapiens, UniProt P08581, M1250T); conditions: MET (M1250T); 1 uM; read-out: Percent Control (%)
T3 construct: purchased DiscoverX
Procedure, shortened: as §1

[4] = molecular target: T4, scanMAX Kinase assay panel (Homo sapiens, UniProt P43405); conditions: SYK; 1 uM; read-out: Percent Control (%)
T4 construct: purchased DiscoverX
Procedure, shortened: as §1

[5] = molecular target: T5, scanMAX Kinase assay panel (Homo sapiens, UniProt P36888, N841I); conditions: FLT3 (N841I); 1 uM; read-out: Percent Control (%)
T5 construct: purchased DiscoverX
T5 sequence (P36888 27-993 N841I): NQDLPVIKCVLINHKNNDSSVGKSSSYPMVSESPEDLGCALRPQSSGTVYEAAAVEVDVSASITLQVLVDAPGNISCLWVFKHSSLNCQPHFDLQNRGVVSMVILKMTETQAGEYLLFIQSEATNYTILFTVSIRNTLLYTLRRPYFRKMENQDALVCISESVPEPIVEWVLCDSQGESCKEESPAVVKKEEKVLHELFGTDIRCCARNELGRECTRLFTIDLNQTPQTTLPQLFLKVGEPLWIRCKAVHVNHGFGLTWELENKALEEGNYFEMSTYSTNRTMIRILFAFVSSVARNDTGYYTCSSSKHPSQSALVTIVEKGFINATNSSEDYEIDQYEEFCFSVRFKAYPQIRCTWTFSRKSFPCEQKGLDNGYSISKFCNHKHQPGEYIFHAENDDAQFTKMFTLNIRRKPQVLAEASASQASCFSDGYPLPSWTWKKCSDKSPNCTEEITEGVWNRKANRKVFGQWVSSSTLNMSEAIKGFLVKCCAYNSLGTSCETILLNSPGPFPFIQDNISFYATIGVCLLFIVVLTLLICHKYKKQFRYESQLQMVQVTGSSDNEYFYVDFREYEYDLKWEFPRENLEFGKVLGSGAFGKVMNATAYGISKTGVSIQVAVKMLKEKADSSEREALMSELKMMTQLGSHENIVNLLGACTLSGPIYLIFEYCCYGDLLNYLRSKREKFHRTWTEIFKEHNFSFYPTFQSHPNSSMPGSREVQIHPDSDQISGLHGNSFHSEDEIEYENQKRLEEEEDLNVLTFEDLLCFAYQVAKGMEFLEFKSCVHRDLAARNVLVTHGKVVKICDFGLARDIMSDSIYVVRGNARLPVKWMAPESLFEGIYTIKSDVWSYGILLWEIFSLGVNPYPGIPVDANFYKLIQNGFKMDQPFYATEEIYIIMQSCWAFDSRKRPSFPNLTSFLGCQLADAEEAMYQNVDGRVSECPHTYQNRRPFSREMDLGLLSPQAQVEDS
Procedure, shortened: as §1

[6] = molecular target: T6, scanMAX Kinase assay panel (Homo sapiens, UniProt Q13043); conditions: MST1; 1 uM; read-out: Percent Control (%)
T6 construct: purchased DiscoverX
T6 sequence (Q13043 1-487): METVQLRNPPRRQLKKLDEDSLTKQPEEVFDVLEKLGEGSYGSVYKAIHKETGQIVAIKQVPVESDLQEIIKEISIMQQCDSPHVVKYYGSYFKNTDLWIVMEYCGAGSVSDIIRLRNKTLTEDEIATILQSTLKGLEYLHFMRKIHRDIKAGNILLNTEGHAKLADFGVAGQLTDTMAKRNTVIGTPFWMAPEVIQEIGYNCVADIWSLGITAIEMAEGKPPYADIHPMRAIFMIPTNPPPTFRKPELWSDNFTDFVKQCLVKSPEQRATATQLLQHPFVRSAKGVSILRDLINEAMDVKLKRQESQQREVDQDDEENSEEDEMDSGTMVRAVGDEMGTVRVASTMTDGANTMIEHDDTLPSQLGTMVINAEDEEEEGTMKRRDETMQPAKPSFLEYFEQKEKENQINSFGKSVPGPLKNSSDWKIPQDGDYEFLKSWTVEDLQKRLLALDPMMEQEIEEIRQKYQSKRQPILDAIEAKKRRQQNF
Procedure, shortened: as §1

[7] = molecular target: T7, scanMAX Kinase assay panel (Homo sapiens, UniProt P00533, T790M); conditions: EGFR (T790M); 1 uM; read-out: Percent Control (%)
T7 construct: purchased DiscoverX
Procedure, shortened: as §1

[8] = molecular target: T8, scanMAX Kinase assay panel (Homo sapiens, UniProt Q14012); conditions: CAMK1; 1 uM; read-out: Percent Control (%)
T8 construct: purchased DiscoverX
Procedure, shortened: as §1

[9] = molecular target: T9, scanMAX Kinase assay panel (Homo sapiens, UniProt P35968); conditions: VEGFR2; 1 uM; read-out: Percent Control (%)
T9 construct: purchased DiscoverX
Procedure, shortened: as §1

[10] = molecular target: T10, scanMAX Kinase assay panel (Homo sapiens, UniProt Q5VT25); conditions: MRCKA; 1 uM; read-out: Percent Control (%)
T10 construct: purchased DiscoverX
Procedure, shortened: as §1

T9 sequence (P35968 20-1356): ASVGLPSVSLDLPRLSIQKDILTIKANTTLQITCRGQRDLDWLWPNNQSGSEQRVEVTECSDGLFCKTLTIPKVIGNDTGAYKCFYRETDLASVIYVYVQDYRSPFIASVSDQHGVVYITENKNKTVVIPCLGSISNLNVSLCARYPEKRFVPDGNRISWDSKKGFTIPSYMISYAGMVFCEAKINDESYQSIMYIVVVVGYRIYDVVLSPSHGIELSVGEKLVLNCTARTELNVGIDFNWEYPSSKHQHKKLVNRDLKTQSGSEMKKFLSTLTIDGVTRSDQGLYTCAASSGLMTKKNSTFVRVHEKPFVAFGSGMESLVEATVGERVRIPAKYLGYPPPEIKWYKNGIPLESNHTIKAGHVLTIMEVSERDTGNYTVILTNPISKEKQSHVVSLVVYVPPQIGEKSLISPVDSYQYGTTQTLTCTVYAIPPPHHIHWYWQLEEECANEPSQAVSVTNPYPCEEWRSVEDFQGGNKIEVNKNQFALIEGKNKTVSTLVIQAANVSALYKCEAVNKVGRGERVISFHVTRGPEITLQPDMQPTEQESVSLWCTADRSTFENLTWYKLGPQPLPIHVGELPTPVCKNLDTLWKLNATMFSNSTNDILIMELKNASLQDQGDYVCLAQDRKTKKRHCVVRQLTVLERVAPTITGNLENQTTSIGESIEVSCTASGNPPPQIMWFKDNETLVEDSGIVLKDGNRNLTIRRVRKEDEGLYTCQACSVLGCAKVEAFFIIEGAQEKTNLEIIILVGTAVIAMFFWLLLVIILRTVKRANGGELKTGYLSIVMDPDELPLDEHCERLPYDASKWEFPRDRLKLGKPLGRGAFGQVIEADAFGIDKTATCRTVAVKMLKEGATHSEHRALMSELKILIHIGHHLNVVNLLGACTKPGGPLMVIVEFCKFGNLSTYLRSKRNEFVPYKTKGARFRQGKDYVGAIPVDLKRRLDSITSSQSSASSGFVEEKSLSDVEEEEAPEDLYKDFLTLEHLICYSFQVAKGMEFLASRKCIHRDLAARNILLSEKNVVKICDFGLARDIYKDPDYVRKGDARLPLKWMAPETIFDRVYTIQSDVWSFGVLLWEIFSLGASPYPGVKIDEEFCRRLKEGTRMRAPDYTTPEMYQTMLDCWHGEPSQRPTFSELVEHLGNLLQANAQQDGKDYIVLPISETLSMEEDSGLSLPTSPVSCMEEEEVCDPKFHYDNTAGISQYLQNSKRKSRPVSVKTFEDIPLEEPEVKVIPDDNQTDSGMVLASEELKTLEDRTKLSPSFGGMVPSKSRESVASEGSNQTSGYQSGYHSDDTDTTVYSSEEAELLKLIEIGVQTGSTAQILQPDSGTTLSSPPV
T10 sequence (Q5VT25 whole entry): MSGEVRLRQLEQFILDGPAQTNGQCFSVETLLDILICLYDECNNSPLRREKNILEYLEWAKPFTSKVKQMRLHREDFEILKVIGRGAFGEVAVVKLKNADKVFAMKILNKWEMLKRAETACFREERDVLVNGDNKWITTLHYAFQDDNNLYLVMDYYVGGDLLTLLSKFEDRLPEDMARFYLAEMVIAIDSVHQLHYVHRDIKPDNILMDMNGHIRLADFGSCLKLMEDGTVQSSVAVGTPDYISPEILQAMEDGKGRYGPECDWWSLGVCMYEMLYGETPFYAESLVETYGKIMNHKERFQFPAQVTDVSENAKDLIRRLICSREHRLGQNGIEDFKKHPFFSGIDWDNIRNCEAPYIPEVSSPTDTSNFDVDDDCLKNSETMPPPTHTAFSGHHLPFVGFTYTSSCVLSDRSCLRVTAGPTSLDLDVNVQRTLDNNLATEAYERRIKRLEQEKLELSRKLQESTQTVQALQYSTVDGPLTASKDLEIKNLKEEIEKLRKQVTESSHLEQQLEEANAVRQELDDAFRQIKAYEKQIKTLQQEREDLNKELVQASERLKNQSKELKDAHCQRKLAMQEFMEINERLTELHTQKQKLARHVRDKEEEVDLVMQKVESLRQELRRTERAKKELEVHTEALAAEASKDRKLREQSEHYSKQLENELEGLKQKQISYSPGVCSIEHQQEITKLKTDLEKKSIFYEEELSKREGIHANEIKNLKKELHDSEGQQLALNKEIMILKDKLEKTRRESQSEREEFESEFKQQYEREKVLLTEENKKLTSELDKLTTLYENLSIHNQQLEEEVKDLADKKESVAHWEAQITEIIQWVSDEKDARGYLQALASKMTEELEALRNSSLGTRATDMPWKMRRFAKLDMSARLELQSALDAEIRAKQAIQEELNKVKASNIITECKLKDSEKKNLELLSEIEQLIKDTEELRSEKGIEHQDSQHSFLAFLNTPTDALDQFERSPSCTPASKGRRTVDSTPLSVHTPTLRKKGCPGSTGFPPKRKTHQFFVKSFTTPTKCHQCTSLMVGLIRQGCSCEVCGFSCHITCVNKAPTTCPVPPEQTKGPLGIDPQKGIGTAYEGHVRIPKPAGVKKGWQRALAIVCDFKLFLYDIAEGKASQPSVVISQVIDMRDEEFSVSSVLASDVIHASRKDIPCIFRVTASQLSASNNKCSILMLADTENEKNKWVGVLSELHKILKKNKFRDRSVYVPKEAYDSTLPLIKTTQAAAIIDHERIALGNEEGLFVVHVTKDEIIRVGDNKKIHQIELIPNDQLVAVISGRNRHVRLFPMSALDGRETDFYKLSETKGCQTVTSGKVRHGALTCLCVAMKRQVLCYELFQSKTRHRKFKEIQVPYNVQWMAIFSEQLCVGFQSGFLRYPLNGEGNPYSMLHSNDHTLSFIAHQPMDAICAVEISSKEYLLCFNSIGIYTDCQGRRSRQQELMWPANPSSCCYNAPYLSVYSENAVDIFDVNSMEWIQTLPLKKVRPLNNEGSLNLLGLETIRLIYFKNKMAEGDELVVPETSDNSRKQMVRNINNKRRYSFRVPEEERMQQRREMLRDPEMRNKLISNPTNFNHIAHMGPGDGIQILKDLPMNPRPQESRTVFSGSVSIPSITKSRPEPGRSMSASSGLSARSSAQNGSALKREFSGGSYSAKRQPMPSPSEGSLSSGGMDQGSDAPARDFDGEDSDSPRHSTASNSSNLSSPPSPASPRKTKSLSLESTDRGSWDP
T1 sequence (P53350 whole entry): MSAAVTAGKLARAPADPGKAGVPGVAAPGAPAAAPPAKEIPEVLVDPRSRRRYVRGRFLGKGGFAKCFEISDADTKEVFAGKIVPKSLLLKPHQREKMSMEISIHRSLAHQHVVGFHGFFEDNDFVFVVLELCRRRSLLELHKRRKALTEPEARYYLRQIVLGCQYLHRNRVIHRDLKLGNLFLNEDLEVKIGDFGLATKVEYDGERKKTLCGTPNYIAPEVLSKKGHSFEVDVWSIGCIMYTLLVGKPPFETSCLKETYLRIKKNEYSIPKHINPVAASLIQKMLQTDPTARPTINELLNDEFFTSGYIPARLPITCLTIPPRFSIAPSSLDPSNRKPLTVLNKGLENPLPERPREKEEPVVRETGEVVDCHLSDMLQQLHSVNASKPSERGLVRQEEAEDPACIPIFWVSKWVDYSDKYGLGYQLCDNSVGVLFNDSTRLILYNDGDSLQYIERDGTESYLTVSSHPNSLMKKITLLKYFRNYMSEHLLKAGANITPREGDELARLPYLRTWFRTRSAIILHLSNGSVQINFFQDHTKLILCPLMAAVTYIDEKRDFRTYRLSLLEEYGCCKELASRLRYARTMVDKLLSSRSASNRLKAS
T3 sequence (P08581 25-1390 M1250T): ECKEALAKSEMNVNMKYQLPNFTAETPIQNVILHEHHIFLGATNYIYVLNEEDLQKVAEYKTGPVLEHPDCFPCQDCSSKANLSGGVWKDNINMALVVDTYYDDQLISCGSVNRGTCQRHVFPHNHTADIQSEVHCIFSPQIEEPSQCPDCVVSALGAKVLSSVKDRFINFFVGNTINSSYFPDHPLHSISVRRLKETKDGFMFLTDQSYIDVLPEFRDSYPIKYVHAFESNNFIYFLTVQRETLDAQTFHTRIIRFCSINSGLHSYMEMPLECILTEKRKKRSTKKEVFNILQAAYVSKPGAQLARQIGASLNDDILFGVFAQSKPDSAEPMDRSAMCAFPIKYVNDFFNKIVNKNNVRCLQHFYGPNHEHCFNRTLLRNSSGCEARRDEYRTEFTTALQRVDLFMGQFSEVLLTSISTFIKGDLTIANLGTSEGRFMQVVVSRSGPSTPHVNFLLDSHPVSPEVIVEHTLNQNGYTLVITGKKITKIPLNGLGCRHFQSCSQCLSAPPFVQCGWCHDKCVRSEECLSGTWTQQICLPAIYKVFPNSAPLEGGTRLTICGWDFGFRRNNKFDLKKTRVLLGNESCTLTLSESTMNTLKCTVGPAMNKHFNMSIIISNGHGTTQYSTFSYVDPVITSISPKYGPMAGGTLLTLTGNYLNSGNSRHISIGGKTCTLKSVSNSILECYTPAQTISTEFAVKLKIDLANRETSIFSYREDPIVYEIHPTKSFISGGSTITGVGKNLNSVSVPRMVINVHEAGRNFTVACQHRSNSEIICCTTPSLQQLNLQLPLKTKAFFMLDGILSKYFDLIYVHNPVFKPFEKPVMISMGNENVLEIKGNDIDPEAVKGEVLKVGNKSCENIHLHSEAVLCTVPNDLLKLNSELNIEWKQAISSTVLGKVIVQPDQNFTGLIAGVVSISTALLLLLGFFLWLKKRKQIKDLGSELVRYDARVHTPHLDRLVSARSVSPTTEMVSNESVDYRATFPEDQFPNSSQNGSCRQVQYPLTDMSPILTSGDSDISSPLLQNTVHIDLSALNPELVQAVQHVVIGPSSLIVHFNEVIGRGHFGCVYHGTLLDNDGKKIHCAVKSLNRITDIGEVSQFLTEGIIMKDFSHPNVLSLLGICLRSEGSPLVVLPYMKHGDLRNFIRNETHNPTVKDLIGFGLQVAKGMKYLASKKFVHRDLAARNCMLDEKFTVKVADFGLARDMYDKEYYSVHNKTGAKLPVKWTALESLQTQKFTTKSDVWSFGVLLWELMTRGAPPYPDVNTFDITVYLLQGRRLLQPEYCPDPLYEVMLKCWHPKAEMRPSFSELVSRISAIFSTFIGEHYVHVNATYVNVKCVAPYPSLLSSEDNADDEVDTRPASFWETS

SMILES	remaining binding at 1 µM [1] [%]	remaining binding at 1 µM [2] [%]	remaining binding at 1 µM [3] [%]	remaining binding at 1 µM [4] [%]	remaining binding at 1 µM [5] [%]	remaining binding at 1 µM [6] [%]	remaining binding at 1 µM [7] [%]	remaining binding at 1 µM [8] [%]	remaining binding at 1 µM [9] [%]	remaining binding at 1 µM [10] [%]
Cc1ccc(C(=O)Nc2ccc(CN3CCN(C)CC3)c(C(F)(F)F)c2)cc1C#Cc1cnc2c(Nc3cnn(C)c3)cccn12 [Example 1, 4-methyl-3-((8-((1-methyl-1H-pyrazol-4-yl)amino)imidazo[1,2-a]pyridin-3-yl)ethynyl)-N-(4-((4-methylpiperazin-1-yl)methyl)-3-(trifluoromethyl)phenyl)benzamide]	77	6	32	2	0	27	10	35	5	96
Cc1cn(-c2cc(NC(=O)c3ccc(C)c(C#Cc4cnc5c(Nc6cnn(C)c6)cccn45)c3)cc(C(F)(F)F)c2)cn1 [Example 12, 4-methyl-N-(3-(4-methyl-1H-imidazol-1-yl)-5-(trifluoromethyl)phenyl)-3-((8-((1-methyl-1H-pyrazol-4-yl)amino)imidazo[1,2-a]pyridin-3-yl)ethynyl)benzamide]	100	100	28	12	28	84	75	73	55	91
Cc1ccc(NC(=O)C2(C(=O)Nc3ccc(F)cc3)CC2)cc1C#Cc1cnc2c(Nc3cnn(C(C)C)c3)cccn12 [Example 78]	100	100	91	78	59	100	100	100	63	100
